Measurements taken from ChEMBL document CHEMBL1201862, “PubChem BioAssay data set” (2004).
Active and inactive are the calls of the source.

Columns and labels:
[1] = viability of uninfected HEp-2 cells – cell-based, HTS, cytotoxicity control for RSV inhibitor project, dose response (AID 2410); type: functional; conditions: human respiratory syncytial virus
HEK293 [2] = test: Fluorescence-based counterscreen for potentiators or agonists of NPY-Y2: cell-based high-throughput dose response assay to identify inhibitors of cyclic nucleotide gated ion channel (CNGC) activity. In this assay, the parental HEK293 cell line transfected with a cyclic-nucleotide gated ion channel (CNGC)-based cAMP sensor is used to measure inhibition of isoproterenol-induced CNGC activity by test compound.; type: functional; conditions: Homo sapiens
[3] = Luminescence Cell-Based Dose Confirmation HTS to Identify Activators of 5'UTR Stem-Loop Driven Alpha-Synuclein mRNA Translation in H4 Neuroglioblastoma Cells. [Related pubchem assays: 1829 (Project Summary), 1814 (Primary HTS)]; type: functional
[4] = Luminescence Cell-Based Dose Response HTS to Identify Activators of Luciferase Translation or Activity in H4 […] Cells. [Related pubchem assays: 1829 (Project Summary), 1814 (Primary HTS)]; type: functional
[5] = molecular target: T1, Neuropeptide Y receptor type 2 (Homo sapiens, UniProt P49146); test: Fluorescence-based cell-based high-throughput dose response assay for agonists of NPY-Y2. [Related pubchem assays: 1703 (Screening assay (CNGC inhibitors).), 1359 (Screening assay (NPY-Y2 potentiators or agonists).), 1304 (Screening assay (NPY-Y1 potentiators or agonists).), 1710 (Screening assay (NPY-Y2 agonists).), 1791 (Summary AID.)]; type: functional
T1 sequence (P49146 whole entry): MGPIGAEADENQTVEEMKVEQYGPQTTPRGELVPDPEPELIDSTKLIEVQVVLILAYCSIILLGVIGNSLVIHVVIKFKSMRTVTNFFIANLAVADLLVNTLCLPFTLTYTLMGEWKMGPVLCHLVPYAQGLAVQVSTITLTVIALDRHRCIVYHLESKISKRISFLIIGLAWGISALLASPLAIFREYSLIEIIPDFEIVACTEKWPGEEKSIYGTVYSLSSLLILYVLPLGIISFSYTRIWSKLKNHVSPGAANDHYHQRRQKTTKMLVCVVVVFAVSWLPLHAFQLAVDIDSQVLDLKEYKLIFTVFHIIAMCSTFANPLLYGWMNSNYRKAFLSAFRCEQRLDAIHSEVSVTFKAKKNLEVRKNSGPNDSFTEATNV

H4 = test: Luminescence Cell-Based Dose Response HTS to Identify Activators of 5'UTR Stem-Loop Driven Prion Protein mRNA Translation in H4 Neuroglioblastoma Cells. [Related pubchem assays: 1829 (Project Summary), 1814 (Primary HTS)]; type: functional; conditions: Homo sapiens
[6] = microbe, parasite or virus in culture; type: functional; conditions: Mycobacterium tuberculosis
[7] = molecular target: T2, Neuropeptide Y receptor type 1 (Homo sapiens, UniProt P25929); test: Fluorescence-based counterscreen for agonists of NPY-Y2: cell-based high-throughput dose response assay for agonists of NPY-Y1.; type: functional
T2 sequence (P25929 whole entry): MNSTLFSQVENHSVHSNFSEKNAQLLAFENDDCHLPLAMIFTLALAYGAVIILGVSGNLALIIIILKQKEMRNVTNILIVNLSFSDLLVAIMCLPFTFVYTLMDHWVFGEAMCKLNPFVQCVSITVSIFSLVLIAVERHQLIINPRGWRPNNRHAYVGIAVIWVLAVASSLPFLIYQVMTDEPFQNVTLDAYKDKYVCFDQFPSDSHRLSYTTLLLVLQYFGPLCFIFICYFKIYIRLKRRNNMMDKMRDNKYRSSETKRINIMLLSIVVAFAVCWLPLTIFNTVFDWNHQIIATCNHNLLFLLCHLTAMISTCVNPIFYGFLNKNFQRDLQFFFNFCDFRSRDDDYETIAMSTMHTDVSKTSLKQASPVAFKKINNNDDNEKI

[8] = molecular target: Peroxisome proliferator-activated receptor gamma/Nuclear receptor coactivator 2 (Homo sapiens, UniProt P37231); type: functional;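 also: agonist potency for raising coactivator recruitment to the receptor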
[9] = molecular target: Peroxisome proliferator-activated receptor gamma/Nuclear receptor coactivator 1 (Homo sapiens, UniProt P37231); type: functional;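 also: agonist potency as compounds enhance coactivator SRC-1 recruitment to PPARgamma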
Sequence of Peroxisome proliferator-activated receptor gamma/Nuclear receptor coactivator 1 (P37231 whole entry): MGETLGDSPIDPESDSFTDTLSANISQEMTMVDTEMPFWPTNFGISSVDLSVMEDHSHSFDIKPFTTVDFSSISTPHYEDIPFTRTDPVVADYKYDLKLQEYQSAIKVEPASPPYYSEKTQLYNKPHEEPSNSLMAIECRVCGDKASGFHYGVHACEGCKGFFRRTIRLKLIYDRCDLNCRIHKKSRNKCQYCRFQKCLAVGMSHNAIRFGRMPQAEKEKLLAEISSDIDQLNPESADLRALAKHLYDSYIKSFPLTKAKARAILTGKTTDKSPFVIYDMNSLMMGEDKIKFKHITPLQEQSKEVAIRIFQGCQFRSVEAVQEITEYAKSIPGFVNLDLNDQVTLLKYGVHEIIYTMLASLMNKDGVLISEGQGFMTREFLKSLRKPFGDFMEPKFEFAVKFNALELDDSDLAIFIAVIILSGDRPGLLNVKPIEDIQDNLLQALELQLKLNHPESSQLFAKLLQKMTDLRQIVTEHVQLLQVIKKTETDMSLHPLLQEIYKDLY
Sequence of Peroxisome proliferator-activated receptor gamma/Nuclear receptor coactivator 1 (Q15788 whole entry, further chain): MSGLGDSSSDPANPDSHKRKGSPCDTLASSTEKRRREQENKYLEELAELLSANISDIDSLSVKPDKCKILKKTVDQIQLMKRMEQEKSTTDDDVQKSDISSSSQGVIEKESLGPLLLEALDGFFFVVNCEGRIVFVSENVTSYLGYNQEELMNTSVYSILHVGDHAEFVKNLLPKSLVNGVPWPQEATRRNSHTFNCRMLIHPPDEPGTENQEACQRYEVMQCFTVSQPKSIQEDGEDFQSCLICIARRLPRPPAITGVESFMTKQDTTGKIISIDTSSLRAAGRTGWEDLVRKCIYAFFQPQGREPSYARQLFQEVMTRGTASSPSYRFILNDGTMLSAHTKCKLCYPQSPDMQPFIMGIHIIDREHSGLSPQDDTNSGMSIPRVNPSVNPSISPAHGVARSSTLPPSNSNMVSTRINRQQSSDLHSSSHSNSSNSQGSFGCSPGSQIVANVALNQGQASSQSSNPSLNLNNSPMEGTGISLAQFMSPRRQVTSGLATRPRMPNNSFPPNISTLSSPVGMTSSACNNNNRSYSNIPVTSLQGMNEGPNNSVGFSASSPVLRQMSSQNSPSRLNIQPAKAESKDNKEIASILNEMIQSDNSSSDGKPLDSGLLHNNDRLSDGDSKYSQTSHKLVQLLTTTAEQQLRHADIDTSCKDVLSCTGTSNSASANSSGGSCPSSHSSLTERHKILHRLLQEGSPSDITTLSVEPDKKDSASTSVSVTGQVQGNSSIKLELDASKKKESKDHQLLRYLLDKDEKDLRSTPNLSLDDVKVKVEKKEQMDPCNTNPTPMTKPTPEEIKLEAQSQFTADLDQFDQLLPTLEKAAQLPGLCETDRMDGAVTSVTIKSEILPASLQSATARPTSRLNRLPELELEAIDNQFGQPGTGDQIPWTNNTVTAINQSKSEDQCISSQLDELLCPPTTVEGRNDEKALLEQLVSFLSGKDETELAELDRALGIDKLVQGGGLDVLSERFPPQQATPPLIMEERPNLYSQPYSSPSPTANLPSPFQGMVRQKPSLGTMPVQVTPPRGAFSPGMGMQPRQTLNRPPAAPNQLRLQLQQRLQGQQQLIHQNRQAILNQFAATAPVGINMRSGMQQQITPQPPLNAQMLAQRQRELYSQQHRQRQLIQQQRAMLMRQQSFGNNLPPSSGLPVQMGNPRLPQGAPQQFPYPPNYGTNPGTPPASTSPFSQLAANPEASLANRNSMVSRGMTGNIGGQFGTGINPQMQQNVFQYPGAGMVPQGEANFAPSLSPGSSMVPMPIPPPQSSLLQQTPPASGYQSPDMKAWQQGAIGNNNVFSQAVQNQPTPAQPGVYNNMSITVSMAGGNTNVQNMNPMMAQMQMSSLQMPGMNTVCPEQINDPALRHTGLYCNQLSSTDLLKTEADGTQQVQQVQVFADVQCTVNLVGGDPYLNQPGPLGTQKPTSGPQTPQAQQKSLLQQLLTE

[10] = molecular target: Peroxisome proliferator-activated receptor gamma/Nuclear receptor coactivator 3 (Homo sapiens, UniProt P37231); type: functional;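 also: agonist potency for raising coactivator recruitment to the receptor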
Sequence of Peroxisome proliferator-activated receptor gamma/Nuclear receptor coactivator 3 (P37231 whole entry): as the sequence (P37231 whole entry) above
Sequence of Peroxisome proliferator-activated receptor gamma/Nuclear receptor coactivator 3 (Q9Y6Q9 whole entry, further chain): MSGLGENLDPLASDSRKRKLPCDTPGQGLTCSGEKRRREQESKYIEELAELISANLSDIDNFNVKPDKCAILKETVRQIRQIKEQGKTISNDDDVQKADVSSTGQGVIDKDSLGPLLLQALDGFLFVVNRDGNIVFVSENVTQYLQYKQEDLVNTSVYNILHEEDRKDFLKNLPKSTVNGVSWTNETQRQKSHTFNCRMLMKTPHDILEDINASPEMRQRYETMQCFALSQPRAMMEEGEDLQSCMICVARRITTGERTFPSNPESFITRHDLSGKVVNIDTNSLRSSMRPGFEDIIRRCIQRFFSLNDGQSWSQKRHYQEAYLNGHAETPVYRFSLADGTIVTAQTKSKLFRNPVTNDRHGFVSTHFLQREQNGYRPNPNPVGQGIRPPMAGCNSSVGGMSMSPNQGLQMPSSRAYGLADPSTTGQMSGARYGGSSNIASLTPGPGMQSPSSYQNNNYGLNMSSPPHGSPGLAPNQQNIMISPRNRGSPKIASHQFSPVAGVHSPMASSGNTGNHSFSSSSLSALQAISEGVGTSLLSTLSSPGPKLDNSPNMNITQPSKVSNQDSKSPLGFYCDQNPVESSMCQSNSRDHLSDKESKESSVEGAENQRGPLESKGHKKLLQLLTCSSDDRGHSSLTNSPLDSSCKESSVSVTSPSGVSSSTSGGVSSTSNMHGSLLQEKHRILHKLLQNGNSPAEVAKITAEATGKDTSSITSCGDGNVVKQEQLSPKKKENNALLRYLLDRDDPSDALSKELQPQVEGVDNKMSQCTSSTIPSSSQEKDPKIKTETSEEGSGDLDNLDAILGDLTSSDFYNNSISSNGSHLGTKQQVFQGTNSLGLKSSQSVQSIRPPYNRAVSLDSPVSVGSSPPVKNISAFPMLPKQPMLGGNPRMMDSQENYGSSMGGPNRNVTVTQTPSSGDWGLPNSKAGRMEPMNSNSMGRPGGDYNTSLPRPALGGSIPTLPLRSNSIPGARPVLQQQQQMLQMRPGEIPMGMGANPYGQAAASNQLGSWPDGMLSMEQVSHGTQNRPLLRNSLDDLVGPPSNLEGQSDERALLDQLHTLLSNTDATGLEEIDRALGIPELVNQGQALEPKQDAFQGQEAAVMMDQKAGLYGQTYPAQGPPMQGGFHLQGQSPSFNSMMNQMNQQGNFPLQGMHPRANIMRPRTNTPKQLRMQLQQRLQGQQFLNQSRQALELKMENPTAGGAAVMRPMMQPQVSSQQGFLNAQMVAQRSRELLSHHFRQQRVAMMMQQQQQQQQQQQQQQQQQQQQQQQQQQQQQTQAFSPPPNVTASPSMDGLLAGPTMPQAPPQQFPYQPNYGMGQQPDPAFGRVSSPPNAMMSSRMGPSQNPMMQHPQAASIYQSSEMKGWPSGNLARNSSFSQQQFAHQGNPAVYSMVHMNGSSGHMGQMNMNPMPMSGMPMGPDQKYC

[11] = luciferase reporter signal suppression in cells – H4 neuroglioma cells, luminescence, dose response (AID 1990); type: functional, cell-based
[12] = Luminescence Cell-Based Dose Response HTS to Identify Inhibitors of 5'UTR Stem-Loop Driven Prion Protein mRNA Translation in H4 Neuroglioblastoma Cells. [Related pubchem assays: 1827 (Project Summary), 1813 (Primary HTS)]; type: functional
[13] = molecular target: T3, Heat shock factor protein 1 (Mus musculus, UniProt P38532); test: decrease of HSF1-responsive luciferase luminescence – cell-based, NIH3T3, dose retest, confirmation (AID 2382); type: functional;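 also: NIH3T3 fibroblasts with HSF1-driven luciferase reporter stressed by proteasome inhibitor MG132; luminescence from HSF1-driven luciferase expression after 8 hours of MG132 stress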
T3 sequence (P38532 whole entry): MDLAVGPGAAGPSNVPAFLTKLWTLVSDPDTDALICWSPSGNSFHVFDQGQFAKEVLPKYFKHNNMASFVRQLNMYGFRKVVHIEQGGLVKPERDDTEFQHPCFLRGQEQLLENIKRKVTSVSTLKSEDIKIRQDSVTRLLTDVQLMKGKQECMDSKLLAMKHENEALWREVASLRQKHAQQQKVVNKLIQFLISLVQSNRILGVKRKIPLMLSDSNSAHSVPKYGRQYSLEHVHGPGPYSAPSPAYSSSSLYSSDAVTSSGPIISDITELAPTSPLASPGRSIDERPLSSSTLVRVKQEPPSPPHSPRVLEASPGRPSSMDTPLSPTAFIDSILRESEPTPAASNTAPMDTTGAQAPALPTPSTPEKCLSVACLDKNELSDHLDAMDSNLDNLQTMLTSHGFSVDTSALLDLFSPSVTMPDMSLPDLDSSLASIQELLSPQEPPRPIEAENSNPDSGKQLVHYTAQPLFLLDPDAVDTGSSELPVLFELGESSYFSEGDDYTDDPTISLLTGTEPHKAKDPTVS

[14] = Luminescence-based counterscreen assay for KLF5 inhibitors: dose response cell-based high throughput screening assay to identify cytotoxic compounds using the IEC-6 intestinal epithelial cell line. [Related pubchem assays: 1700 (Primary screen.), 1834 (Confirmation screen.), 1858 (Summary AID.), 1905 (Counterscreen.)]; type: functional
[15] = A549 cell cytotoxicity, dose response, cytotoxicity control, plate reader, cherry-pick, antagonist series (AID 743412); type: functional, cell-based
[16] = blockers of bursicon-stimulated LGR2 cAMP reporter – cell-based, HEK293, CRE-luciferase reporter, cherry pick, set 2, dose response (AID 743343); type: functional;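 also: transfected cells were stimulated with diluted bursicon conditioned medium after compound addition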
[17] = blockade of melanocortin 4 receptor signaling – cell-based, plate reader, cherry pick, counter-screen for LGR2 antagonist project, dose response (AID 743444); type: functional;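 also: transfected HEK 293 cells stimulated with alpha-MSH peptide; potency of inhibitors of the alpha-MSH evoked signal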
[18] = viability loss in HEK293 cells – cell-based, plate reader, cherry-picked samples, cytotoxicity control, dose response (AID 743446); type: functional
[19] = antiviral protection against BTV-induced cell death – arbovirus, BSR cells, confirmation (AID 1250); type: functional;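 also: protection from viral cytopathic effect measured as cell viability by ATP luminescence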
INS1 = test: INS-1E survival protection against cytokine death – cell-based, luminescence, retest, dose response (AID 449756); type: functional; conditions: Rattus norvegicus;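 also: cell death triggered by IL-1 beta plus TNF-alpha plus IFN-gamma mixture; protective hits raise ATP signal compared with cytokine alone wells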
[20] = molecular target: T4, Alkaline phosphatase, tissue-nonspecific isozyme (Homo sapiens, UniProt P05186)
T4 sequence (P05186 whole entry): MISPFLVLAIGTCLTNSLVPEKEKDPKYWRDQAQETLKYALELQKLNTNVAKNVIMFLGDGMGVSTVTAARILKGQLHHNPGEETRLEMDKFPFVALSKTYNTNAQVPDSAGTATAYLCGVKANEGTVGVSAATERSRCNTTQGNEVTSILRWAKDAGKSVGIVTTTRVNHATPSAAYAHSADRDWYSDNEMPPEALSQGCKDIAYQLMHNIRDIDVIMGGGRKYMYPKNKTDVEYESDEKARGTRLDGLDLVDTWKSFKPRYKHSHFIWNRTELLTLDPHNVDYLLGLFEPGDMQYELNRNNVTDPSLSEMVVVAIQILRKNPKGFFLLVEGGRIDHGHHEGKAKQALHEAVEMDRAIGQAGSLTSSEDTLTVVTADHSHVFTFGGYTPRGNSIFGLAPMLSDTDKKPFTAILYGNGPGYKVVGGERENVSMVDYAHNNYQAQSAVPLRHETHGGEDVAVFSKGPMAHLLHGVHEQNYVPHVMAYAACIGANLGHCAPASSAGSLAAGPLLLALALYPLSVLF

[21] = viability loss in THP-1 monocytes – THP-1 cells, cytotoxicity control for Vif-APOBEC3G degradation inhibitor project, dose response (AID 1117359); type: functional; conditions: THP-1
[22] = molecular target: Lysosomal acid glucosylceramidase (Homo sapiens, UniProt P04062); test: Dose response cell-based high throughput screening assay to identify enhancers of beta-glucosidase activity. [Related pubchem assays: 784 ]; type: functional
Sequence of Lysosomal acid glucosylceramidase (P04062 whole entry): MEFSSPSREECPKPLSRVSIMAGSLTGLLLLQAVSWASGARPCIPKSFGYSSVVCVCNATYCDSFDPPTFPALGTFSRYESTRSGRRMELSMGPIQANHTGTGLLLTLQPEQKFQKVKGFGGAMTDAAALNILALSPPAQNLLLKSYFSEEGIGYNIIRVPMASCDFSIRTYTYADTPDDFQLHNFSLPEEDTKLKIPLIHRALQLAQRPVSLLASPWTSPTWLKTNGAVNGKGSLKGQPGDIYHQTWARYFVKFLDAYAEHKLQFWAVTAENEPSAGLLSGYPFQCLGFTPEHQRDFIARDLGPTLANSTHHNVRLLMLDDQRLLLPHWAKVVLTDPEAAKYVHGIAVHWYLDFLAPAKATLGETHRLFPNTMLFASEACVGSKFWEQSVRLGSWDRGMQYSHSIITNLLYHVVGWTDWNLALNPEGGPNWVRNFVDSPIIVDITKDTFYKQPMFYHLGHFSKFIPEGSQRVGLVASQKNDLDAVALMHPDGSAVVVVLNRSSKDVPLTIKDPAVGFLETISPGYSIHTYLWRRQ

[23] = NIH-3T3 fibroblast cytotoxicity, dose response, cytotoxicity control, cell-based, fluorescence, Alamar Blue, secondary assay (AID 2327); type: functional;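 also: NIH-3T3 mouse fibroblasts cultured with fluconazole at 8 µg/mL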
[24] = decrease of insulin promoter-GFP reporter – imaging, high-content screening, mouse beta cells (AID 1628); type: functional; conditions: MIN6
cells [25] = type: functional, cell-based
[26] = MIN6 cell viability loss – mouse insulinoma, cytotoxicity control, dose response (AID 2122); type: functional;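 also: confirmatory high-throughput counterscreen run to flag cytotoxic compounds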
[27] = fluconazole-exposed Candida albicans growth modulators – fluorescence, retest, confirmation (AID 2467); type: functional, cell-based
cells [28] = type: functional, cell-based; remark: listed apart in the source
Nonstructural protein 1 = Nonstructural protein 1 (Influenza A virus, UniProt Q194T2); type: functional, Influenza A virus (A/California/07/2009(H1N1))
HEK293 [29] = test: EBV LMP1 TES2 canonical NF-kB signalling blockers – cell-based, HEK293, luciferase, cherry-pick, dose response (AID 588343); type: functional; conditions: Homo sapiens
[30] = toxicity toward HepG2 liver cells – cell-based, plate reader, cherry-pick, antagonist series, cytotoxicity control, dose response (AID 743416); type: functional
[31] = molecular target: Luciferin 4-monooxygenase (Photinus pyralis, UniProt P08659); test: inhibition of purified Photinus pyralis luciferase – biochemical, luminescence, dose response (AID 1891)
Sequence of Luciferin 4-monooxygenase (P08659 whole entry): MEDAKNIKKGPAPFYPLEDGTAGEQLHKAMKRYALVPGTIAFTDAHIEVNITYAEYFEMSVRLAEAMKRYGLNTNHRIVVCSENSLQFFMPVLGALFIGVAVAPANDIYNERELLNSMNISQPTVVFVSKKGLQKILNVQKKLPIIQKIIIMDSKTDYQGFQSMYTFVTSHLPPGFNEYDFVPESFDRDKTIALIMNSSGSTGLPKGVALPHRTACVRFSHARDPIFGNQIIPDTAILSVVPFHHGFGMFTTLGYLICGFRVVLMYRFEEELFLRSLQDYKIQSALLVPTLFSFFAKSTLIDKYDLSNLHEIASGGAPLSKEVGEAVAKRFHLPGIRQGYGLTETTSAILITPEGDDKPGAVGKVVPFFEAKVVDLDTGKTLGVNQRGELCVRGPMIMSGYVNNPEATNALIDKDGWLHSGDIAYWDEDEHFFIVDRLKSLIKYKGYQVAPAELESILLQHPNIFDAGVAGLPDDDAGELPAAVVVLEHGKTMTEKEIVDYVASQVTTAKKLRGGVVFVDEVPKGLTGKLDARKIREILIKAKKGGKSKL

[32] = Luminescence Cell-Based Dose Confirmation HTS to Identify Inhibitors of Platelet Dense Granule Release. [Related pubchem assays: 1663 (Primary HTS), 1678 (Summary of Project)]; type: functional
Paired box protein Pax-8 = Paired box protein Pax-8 (Homo sapiens, UniProt Q06710); test: PAX8 transcriptional activity inhibition in RMG-I – RMG-I cells, luciferase, cherry-pick, dose response (AID 687027); type: functional, cell-based;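 also: luciferase reporter driven by Pax8 target thyroperoxidase promoter measured by SteadyGlo luminescence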

CCn1c2ccccc2c2cc(NC(=O)CN(C)CC(=O)Nc3ccc(N4CCOCC4)cc3)ccc21
CC50 [1]: 32.7 µM (active) | EC50 (HEK293 [2]): > 35.4 µM (not active) | EC50 [3]: > 120 µM (not active) | EC50 [4]: > 120 µM (not active) | EC50 [5]: > 35.4 µM (not active) | EC50 (H4): > 120 µM (not active) | CC50 [6]: 37.5 µM (active) | EC50 [7]: > 35.4 µM (not active)

N#Cc1cc(O)c(-n2nnc3ccccc32)cc1C#N
EC50 [8]: > 79.4 µM (not active) | EC50 [9]: > 79.4 µM (not active) | EC50 [10]: > 79.4 µM (not active)

CC1CCN(c2ccc(-c3cccs3)nn2)CC1
EC50 [11]: 8.6 µM (active) | EC50 [12]: 10.4 µM (active) | EC50 [13]: 2.78 µM (active) | IC50 [14]: 37.5 µM (not active) | AC50 [15]: 29.4 µM (active) | AC50 [16]: 0.851 µM (active) | AC50 [17]: 1.43 µM (active) | AC50 [18]: 30.9 µM (active)

O=C(Nc1nc2ccccc2s1)c1cc(-c2ccccc2)nn1-c1ccccc1
IC50 [19]: 47.4 µM (active) | AC50 (INS1): 3.62 µM (active)

Cc1nn(Cc2c(F)cccc2Cl)c(C)c1[N+](=O)[O-]
EC50 [8]: > 79.4 µM (not active) | EC50 [9]: > 79.4 µM (not active) | EC50 [10]: > 79.4 µM (not active)

O=C(CCC(=O)NNc1nc2ccccc2c2nc(-c3ccccc3)nn12)NCCCN1CCOCC1
EC50 [20]: 70.8 µM (not active) | CC50 [21]: > 40 µM (active)

CCOC(=O)CN1C(=O)CSc2ccccc21
EC50 [22]: > 10 µM (not active)

COc1ccc(-c2nc3ccccn3c2CN2CCN(c3ccccc3F)CC2)cc1
EC50 [20]: 69.1 µM (not active) | CC50 [6]: > 40 µM (active)

Cn1c(Cc2ccccc2)nnc1SCC(=O)Nc1ccccc1N1CCOCC1
EC50 [22]: > 50 µM (not active)

COc1cccc(/C=N/Nc2nccnc2Cl)c1O
EC50 [23]: > 150 µM (inactive) | IC50 [24]: 3.57 µM (active) | EC50 (cells [25]): > 350 µM (not active) | IC50 [26]: 3.97 µM (active) | EC50 [27]: 1.52 µM (active) | IC50 [14]: 9.16 µM (active) | EC50 (cells [28]): 6.97 µM (active) | IC50 (Nonstructural protein 1): 7.59 µM (active) | AC50 (HEK293 [29]): 2.73 µM (active) | AC50 [15]: 4.2 µM (active) | AC50 [30]: 2.48 µM (active) | AC50 [16]: 3.7 µM (active) | AC50 [17]: 3.39 µM (active) | AC50 [18]: 6.83 µM (active)

O=C(N/N=C/c1ccc(Cl)c([N+](=O)[O-])c1)c1cc(-c2ccc3c4c(cccc24)CC3)[nH]n1
EC50 (HEK293 [2]): > 35.4 µM (not active) | EC50 [5]: > 35.4 µM (not active) | EC50 [31]: > 112 µM (not active) | EC50 [32]: > 112 µM (not active) | EC50 [7]: > 35.4 µM (not active) | AC50 (Paired box protein Pax-8): 3.25 µM (active)
